Data published in PMC11811690 (Angewandte Chemie (International Ed. in English), 2024).

test system: Rif-resistant Mtb isolate (clinical isolate, rpoB mutant S531L); format: cell-based, Mycobacterium tuberculosis

Compound | MIC Rif-resistant Mtb isolate, turbidity read-out
CC[C@H]1/C=C(\C)[C@@H](O)C/C=C/C=C(\CN(C)Cc2nnc(-c3ccccc3)o2)C(=O)O[C@H]([C@@H](C)O)C/C=C(C)/C=C(\C)[C@@H]1O[C@@H]1OC(C)(C)[C@@H](OC(=O)C(C)C)[C@H](O)[C@@H]1O [compound 7] | 8 to 16 µg/mL
CC[C@H]1/C=C(\C)[C@@H](O)C/C=C/C=C(\CNc2nc3ccccc3s2)C(=O)O[C@H]([C@@H](C)O)C/C=C(C)/C=C(\C)[C@@H]1O[C@@H]1OC(C)(C)[C@@H](OC(=O)C(C)C)[C@H](O)[C@@H]1O [compound 9] | 8 to 16 µg/mL
CC[C@H]1/C=C(\C)[C@@H](O)C/C=C/C=C(\CNc2nc(COc3ccccc3)cs2)C(=O)O[C@H]([C@@H](C)O)C/C=C(C)/C=C(\C)[C@@H]1O[C@@H]1OC(C)(C)[C@@H](OC(=O)C(C)C)[C@H](O)[C@@H]1O [compound 10] | 8 to 16 µg/mL
CC[C@H]1/C=C(\C)[C@@H](O)C/C=C/C=C(\CNc2nc(-c3ccccc3)cs2)C(=O)O[C@H]([C@@H](C)O)C/C=C(C)/C=C(\C)[C@@H]1O[C@@H]1OC(C)(C)[C@@H](OC(=O)C(C)C)[C@H](O)[C@@H]1O [compound 13] | 8 to 16 µg/mL
CC[C@H]1/C=C(\C)[C@@H](O)C/C=C/C=C(\CNCc2nnc(-c3ccccc3)o2)C(=O)O[C@H]([C@@H](C)O)C/C=C(C)/C=C(\C)[C@@H]1O[C@@H]1OC(C)(C)[C@@H](OC(=O)C(C)C)[C@H](O)[C@@H]1O [compound 16] | 4 to 8 µg/mL
CC[C@H]1/C=C(\C)[C@@H](O)C/C=C/C=C(\CNCc2nnc(-c3ccc(OC)c(OC)c3Cl)o2)C(=O)O[C@H]([C@@H](C)O)C/C=C(C)/C=C(\C)[C@@H]1O[C@@H]1OC(C)(C)[C@@H](OC(=O)C(C)C)[C@H](O)[C@@H]1O [compound 18] | 4 to 8 µg/mL
CC[C@H]1/C=C(\C)[C@@H](O)C/C=C/C=C(\CNCc2nnc(-c3ccc(C(F)(F)F)cc3)o2)C(=O)O[C@H]([C@@H](C)O)C/C=C(C)/C=C(\C)[C@@H]1O[C@@H]1OC(C)(C)[C@@H](OC(=O)C(C)C)[C@H](O)[C@@H]1O [compound 23] | 4-8
CC[C@H]1/C=C(\C)[C@@H](O)C/C=C/C=C(\CNc2ccc(C#N)cc2)C(=O)O[C@H]([C@@H](C)O)C/C=C(C)/C=C(\C)[C@@H]1O[C@@H]1OC(C)(C)[C@@H](OC(=O)C(C)C)[C@H](O)[C@@H]1O [compound 24] | 16-32
CC[C@H]1/C=C(\C)[C@@H](O)C/C=C/C=C(\CNc2ccc(C#N)cn2)C(=O)O[C@H]([C@@H](C)O)C/C=C(C)/C=C(\C)[C@@H]1O[C@@H]1OC(C)(C)[C@@H](OC(=O)C(C)C)[C@H](O)[C@@H]1O [compound 25] | 16-32
